# Measured values reported in article PMC6826779, “Bis-allylic Deuterated DHA Alleviates Oxidative Stress in Retinal Epithelial Cells” (Antioxidants, 2019).
# Like-named read-outs stand apart in the source and are kept apart here.
# Legend:
# [1] = tested on: ARPE-19 cells; assay: cells; format: cell-based; conditions: for concentration range providing improvement in cell viability / concentration at which high toxicity was observed (microscopy, loss of cell adherence): 24 h; for concentration range providing improvement in cell viability: compared to untreated cells (CTL); for concentration at which high toxicity was observed (microscopy, loss of cell adherence): ARPE-19, serum starvation medium (1% FBSM); for cell mortality: ARPE-19, serum starvation, 50 µM; for IC50: Homo sapiens, MTT, read-out: IC50 (concentration leading to 50% of cell viability)
# Method: ARPE-19 cells were obtained from ATCC, and maintained in Dulbecco’s Modified Eagle’s Medium (DMEM)/Ham F12 (GIBCO) containing 10% (v/v) fetal bovine serum (FBS) and 1% (v/v) penicillin/streptomycin under a humidified (95%)/CO2 (5%) atmosphere at 37 °C. For splitting and experiments, cells were dissociated with 0.25% trypsin-EDTA, re-suspended in the culture medium and then plated at 1–3 × 10^5 cells/mL. Cells were cultured and used up to a maximum of 10 passages.
# Cell viability was determined by the MTT colorimetric assay. Cells were incubated for 2 h with MTT reagent (0.5 mg/mL). The absorbance at 570 nm and 655 nm of individual wells was measured using a microplate reader (BioRad 550). The percentage of viable cells was calculated as [(OD570 sample – OD655 sample)/(OD570 control – OD655 control)] × 100%.
# ARPE-19 cells were plated into 96-well plates (3 × 10^4 cells/well) and cultured for 24 h to reach confluence before DHA treatment. The cells were treated in medium with 1% FBS (1% FBSM), or with H2O2 prepared in medium with FBS (1%, v/v) to a final concentration of 600 μM. Cells were then treated with DHA, D2-DHA and D4-DHA, at different concentrations (0–80 μm) for 24 h. Control cells were incubated with DMSO (0.2%). After 4 h, cell viability was determined in triplicate using the MTT colorimetric assay. Results were expressed in percentage of viable cells normalized with control conditions in the absence of PUFA and H2O2 stress.
# Sigmoidal doses-responses linked to the toxicity were obtained using GraphPad prism software, allowing to calculate IC50 values described as the concentration leading to 50% of cell viability.
# [2] = target: T1, 15-sLOX (Glycine max, UniProt P08170); assay: Kinetics parameters of 15s-LOX (UV 270 nm, Michaelis-Menten); format: biochemical, Glycine max (soybean); conditions: monitored at 270 nm
# T1 sequence (P08170 1-839): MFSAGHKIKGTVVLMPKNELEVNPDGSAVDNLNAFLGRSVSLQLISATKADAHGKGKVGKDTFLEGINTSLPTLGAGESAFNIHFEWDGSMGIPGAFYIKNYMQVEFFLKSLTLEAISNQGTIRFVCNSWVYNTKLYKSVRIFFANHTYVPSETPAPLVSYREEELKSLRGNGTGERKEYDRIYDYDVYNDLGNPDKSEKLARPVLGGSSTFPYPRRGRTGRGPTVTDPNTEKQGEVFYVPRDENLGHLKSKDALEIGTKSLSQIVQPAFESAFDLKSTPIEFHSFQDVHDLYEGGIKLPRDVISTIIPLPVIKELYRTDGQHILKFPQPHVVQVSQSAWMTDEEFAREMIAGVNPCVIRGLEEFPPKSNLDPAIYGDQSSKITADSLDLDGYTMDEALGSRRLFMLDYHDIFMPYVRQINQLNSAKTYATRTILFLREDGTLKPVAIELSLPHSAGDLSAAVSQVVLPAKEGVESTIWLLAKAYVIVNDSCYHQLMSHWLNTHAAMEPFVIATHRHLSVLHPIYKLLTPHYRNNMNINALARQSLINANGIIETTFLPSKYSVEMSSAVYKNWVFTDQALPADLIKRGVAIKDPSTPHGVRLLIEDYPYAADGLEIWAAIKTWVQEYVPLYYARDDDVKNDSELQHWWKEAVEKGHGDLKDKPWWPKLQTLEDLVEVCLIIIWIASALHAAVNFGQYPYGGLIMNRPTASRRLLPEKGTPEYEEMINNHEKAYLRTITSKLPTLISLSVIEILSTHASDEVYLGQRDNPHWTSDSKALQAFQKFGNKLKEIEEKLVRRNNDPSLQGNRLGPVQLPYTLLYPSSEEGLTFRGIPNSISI
# Method: The activity of 15-sLOX was monitored on a Beckman Coulter DU730 Life Sciences UV-visible spectrometer at a wavelength of 270 nm monitoring the conjugated triene structure in the dihydroxylation products. For the measurements a reaction mixture of DHA or deuterated DHA (0.02 mM; 0.04 mM; 0.1 mM and 0.2 mM) was prepared in 750 µL sodium borate buffer (50 mM, pH 9) by ultrasonification for 10 s. The reaction was subsequently initiated by the addition of 10 µL 15-sLOX (4 mg/mL) to make a total volume of 760 µL in a Hellma CEL2056 quartz cuvette with 1 cm path length (20 °C). The initial reaction rates (V(0)), derived from the recorded UV-absorbance using the law of Lambert-Beer (molar extinction coefficient = 40,000), were plotted against the respective DHA concentrations and fitted to Michaelis-Menten kinetics in GraphPad Prism 7.0. All V(0) values were determined in triplicate and the average of three independent experiments was plotted against the substrate concentrations to yield Michaelis-Menten kinetics.
# [3] = ARPE-19, 24 h incubation, H2O2 (600 µM) 4 h
# [4] = ARPE-19, serum starvation (1% FBSM), 24 h incubation
Structure (SMILES),"concentration range providing improvement in cell viability ([1]; ARPE-19, 1% FBSM) [µM]","concentration at which high toxicity was observed (microscopy, loss of cell adherence) [1] [µM]",cell mortality [1],"IC50 [1, 3] [µM]","IC50 [1, 4] [µM]",15s-LOX activity for the double hydroxylation product [2],"cell survival ([1]; ARPE-19, 1% FBSM, 70 µM) [%]"
"[2H]C([2H])(/C=C\C/C=C\C/C=C\C/C=C\C/C=C\CC)/C=C\CCC(=O)O [D2-DHA, (6,6-D2)-DHA]",0 to 65,65 to 70,did not induced cell mortality,67 ± 1.89,69.5 ± 1.46,no substantial differences,–
"[2H]C([2H])(C=CCC=CCC=CCC=CCC)C=CC([2H])([2H])C=CCCC(=O)O [D4-DHA, (6,6,9,9-D4)-DHA]",0 to 70,70 to 75,did not induced cell mortality,76.2 ± 2.26,75.6 ± 1.05,no substantial differences,125
"CC/C=C\C/C=C\C/C=C\C/C=C\C/C=C\C/C=C\CCC(=O)O [Natural DHA, docosahexaenoic acid, reference compound]",0 to 60,60 to 65,did not induced cell mortality,65.5 ± 1.87,65.2 ± 1.03,no substantial differences,–
